Test results: patent publication US20130317052A1, “QUINOLINE DERIVATIVE COMPOUND, METHOD FOR PREPARING SAME, AND PHARMACEUTICAL COMPOSITION CONTAINING SAME” (Dong-A ST Co., Ltd., priority 2010, published 2013)

Tests used:
serotonin-1B receptor = molecular target: T1, serotonin-1B receptor (Rattus norvegicus, UniProt P28564); test: Assay for affinity for serotonin-1B receptor: competitive inhibition of [125I]cyanopindolol binding to rat cerebral cortex membranes; details: 10 μM compound, 10 pM [125I]cyanopindolol, mean of two experiments
T1 construct: cell membranes of the cerebral cortex excised from male Winstar rats; from tissue; host or cells: rat cerebral cortex membranes
T1 sequence (P28564 whole entry): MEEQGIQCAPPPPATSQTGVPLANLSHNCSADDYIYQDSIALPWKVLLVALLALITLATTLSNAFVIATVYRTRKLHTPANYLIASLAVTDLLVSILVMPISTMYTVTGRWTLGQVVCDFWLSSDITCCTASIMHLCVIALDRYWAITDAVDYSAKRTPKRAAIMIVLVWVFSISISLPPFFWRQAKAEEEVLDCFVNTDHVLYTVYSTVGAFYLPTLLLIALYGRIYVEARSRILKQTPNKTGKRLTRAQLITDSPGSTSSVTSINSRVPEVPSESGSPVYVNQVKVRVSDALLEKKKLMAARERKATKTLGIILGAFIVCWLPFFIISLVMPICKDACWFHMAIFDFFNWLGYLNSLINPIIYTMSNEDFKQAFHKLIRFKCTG
Method: Compounds of the present invention were examined for affinity for the serotonin-1B receptor which can exert a relaxation effect on the stomach to relieve impaired gastric accommodation of functional dyspepsia patients in response to an agonist.
In a Tris-HCl buffer (50 mM Tris-HCl, pH 7.4, 120 mM NaCl, 5 mM KCl, 2 mM CaCl2, 1 mM MgCl2), 4 mg of cell membranes of the cerebral cortex excised from male Winstar rats, each weighing 175±25 g, was incubated at 37° C. for 1.5 hrs with 10 pM of ^125[I] cyanopindolol (PerkinElmer, 100 μCi) and 10 μM of the compound of interest of the present invention per well. After completion of the incubation, the incubation mixture was filtered through Whatman GF/B filter (unifilter-96, Lot: 6005177, PerkinElmer) to separate ligand-bound receptors. These bound receptors were washed three times with 5 mL of a Tris-HCl buffer. Then, 10 mL of a scintillation cocktail (Lot: 03999, Fluka) was added and reacted for 16 hrs or longer to measure radiation activity using a beta-counter (Packcard) in order to calculate the quantity of ^125[I] cyanopindolol bound to the receptor.
Meanwhile, 10 μM of serotonin (H9523, Sigma) was incubated in the presence of 10 pM of ^125[I] cyanopindolol to determine a nonspecific binding value. The experiment was independently carried out twice, and receptor affinity was calculated using the following Equation 2. […]

[1] = Gastric emptying effect on normal rat, semi-solid test meal; format: in vivo, Sprague-Dawley rats; details: for Gastric Emptying (%): 45 min before test meal, stomach weighed 35 min after meal
Method: Gastric emptying activity of the compounds of the present invention was examined in the following experiment.
Sprague-Dawley rats, each weighing 200˜250 g, were acclimated for one week at a temperature of 22˜24° C. and a humidity of 60-80% while a standard diet and water were provided, and then were divided into groups according to weight. Thereafter, they were starved for 24 hrs before an experiment while water was provided. From 3 hrs before the experiment, no more water was provided. […] For control 1, only 1 mL of a 3% hydroxypropylmethyl cellulose solution was used while sisapride was orally administered at a dose of 1 mg/kg in 1 mL of a 3% hydroxypropylmethyl cellulose to control 2.
After 45 min, a semi-solid test meal prepared by mashing feeds in water, was orally administered in an amount of 2 mL to each rat. After 35 min, the SD rats were killed, and the stomach containing the semi-solid test meal was excised, and weighed. Subsequently, the stomach was washed with distilled water to remove the gut content, dried, and weighed again, in order to calculate the weight of the semi-solid test meal left in the gut.
Gastric Emptying(%)=[1−(weight of semi-solid test meal left in gut/weight of semi-solid test meal at 0-time)]×100 [Equation 3]
(weight of semi-solid test meal at 0-time means weight of the semi-solid test meal left in the rat killed immediately after the administration of the semi-solid test meal)

[2] = molecular target: T2, dopamine-D2 receptor (human dopamine D2s) (Homo sapiens, UniProt P14416); test: Assay for affinity for dopamine receptor: competitive inhibition of [3H]spiperone binding; details: 10 μM compound; 0.16 nM [3H]spiperone; CHO cells transfected with human dopamine D2s gene; mean of two experiments
T2 construct: expressed in transfected cells; host or cells: CHO cells
T2 sequence (P14416 1-414 isoform P14416-2): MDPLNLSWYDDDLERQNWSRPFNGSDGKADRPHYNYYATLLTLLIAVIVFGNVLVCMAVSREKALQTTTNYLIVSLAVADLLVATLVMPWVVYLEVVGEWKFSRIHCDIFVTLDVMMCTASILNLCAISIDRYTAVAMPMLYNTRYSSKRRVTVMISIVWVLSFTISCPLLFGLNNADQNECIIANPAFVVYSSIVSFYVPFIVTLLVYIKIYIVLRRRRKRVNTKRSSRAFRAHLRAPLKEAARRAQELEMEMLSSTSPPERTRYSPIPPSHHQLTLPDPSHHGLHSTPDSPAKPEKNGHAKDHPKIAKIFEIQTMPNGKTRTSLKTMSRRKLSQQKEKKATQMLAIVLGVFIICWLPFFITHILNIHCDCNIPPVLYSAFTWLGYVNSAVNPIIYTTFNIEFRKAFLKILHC
Method: Affinity of the compounds of the present invention for the dopamine-D2 receptor, which is found in the wall of the gastric tract of mammals and inhibits gastrointestinal motility, was determined by measuring competitive inhibition against the binding to the receptor of a radio-labeled ligand which is known for its affinity for the receptor. In this regard, the experiment was performed according to the method described in [Heys G et al. Mol Endocrinol. 6:920, 1992] and [Grandy D K et al. Proc Natl Acad Sci USA. 86:9762, 1989].
In tris-HCl buffer ([…], pH 7.4, 120 mM NaCl, 5 mM KCl, 2 mM CaCl2, 1 mM MgCl2) 150 μg of Chinese hamster ovary (CHO) cells transfected with a human dopamine D2s gene were incubated at 25° C. for 120 min with 0.16 nM of tritium Spiperone (^3[H] Spiperon [NEN, 250 μCi]) and 10 μM of the compound of interest of the present invention. After completion of the reaction, the reaction mixture was filtered through Whatman GF/B filter (unifilter-96, Lot: 6005177, PerkinElmer) to separate ligand-bound receptors. These bound receptors were washed three times with a Tris-HCl buffer. Then 10 mL of a scintillation cocktail (Lot: 03999, Fluka) was added and reacted for 16 hrs or longer to measure radiation activity using a beta-counter (Packcard) in order to calculate the quantity of tritium spiperone bound to the receptor. Meanwhile, 10 μM of Haloperidol (H1512, Sigma) was incubated in the presence of 0.16 nM tritium Spiperone to determine a nonspecific binding value. The experiment was independently carried out twice, and receptor affinity was calculated using the following Equation 1.
Receptor Affinity(%)={(Total CPM−Nonspecific Binding CPM−CPM of tritium Spiperone remaining after addition of interest compound of the present invention)/(Total CPM−Nonspecific Binding CPM)}×100 Equation 1
(CPM: counter per minute)

Compound	Affinity (%) (serotonin-1B receptor)	Gastric Emptying (%) ([1]; 10 μg/kg oral)	increase of gastric emptying compared to control 1 (no drug) ([1]; 10 μg/kg oral, normal rat)	Affinity (%) [2] [%]	Gastric Emptying (%) ([1]; 10 mg/kg oral (Table 3))
COc1cc2c(cc1Oc1cc3c(cc1OC)-c1c(OC)c(OC)cc4ccnc(c14)C3=O)CCN1Cc3c(ccc(OC)c3OC)C[C@@H]21 [Compound of Example 1, (S)-1,2,10-Trimethoxy-9-(2,9,10-trimethoxy-5,8,13,13a-tetrahydro-6H-isoquino[3,2-a]isoquinolin-3-yloxy)-dibenzo[de,g]quinolin-7-one]	61	62.3	roughly two-fold	91	–
COc1cc2c(cc1Oc1cc3c(cc1OC)CC[n+]1cc4c(OC)c(OC)ccc4cc1-3)C[C@@H]1NCCc3cc(OC)c(OC)c-2c31 [Compound of Example 2, (S)-3,9,10-Trimethoxy-2-(1,2,10-trimethoxy-5,6,6a,7-tetrahydro-4H-dibenzo[de,g]quinolin-9-yloxy)-5,6-dihydro-isoquino[3,2-a]isoquinolinylium]	35	47.3	–	25	–
COc1cc(N)c(Cl)cc1C(=O)NC1CCN(CCCOc2ccc(F)cc2)CC1OC (stereo not drawn) [Control 2, sisapride, reference compound]	–	–	–	–	68.9
COc1ccc(C(=O)NCc2ccc(OCCN(C)C)cc2)cc1OC [Itopride, reference compound]	–	–	–	75	–
